# Test results reported in patent publication US8247170B2, “Detection of penicillin tolerance in Group B Streptococcus: single nucleotide polymorphisms in penicillin binding protein 4” (priority 2008, dated 2012).
# System: GBS strains
# Assay: Cell viability by intracellular ATP concentration after penicillin
# Format: cell-based, Group B Streptococcus
# Conditions: GBS strain A909 compared to NEM316 and O90R; 100×MIC90 Penicillin G 22 hours
# Experimental: GBS strains were cultured for 18 hours at 37° C. in THB. These cultures were used to inoculate fresh THB and subsequently allowed to grow to exponential phase (OD600 0.25-0.3) at 37° C. One (1) ml of culture was centrifuged at 5,000 g for 4 min. The cell pellet was re-suspended in ATP free water. Cellular ATP was extracted by using trichloroacetic acid (TCA) (5%) for 2 min. and subsequently neutralized with Tris-EDTA-0.1M NaOAc, pH 7.75 to 10×TCA volume. The initial (in.) cellular ATP concentration ([ATP]) was measured using the ENLITEN (Promega) luciferase based reaction kit. THB cultures then treated 100×MIC90 Penicillin G for 22 hours. The experimental (exp.) cellular ATP was extracted and the concentration was measured as stated above. Based on the calculations ([ATP] exp.)/([ATP] in./O.D. in.), differences in viability were equated with the change in [ATP].
# (I) Bacterial Strains and Culture Conditions. […] Cell cultures were allowed to re-grow for an additional 24 h at 37° C. before the OD600 was measured. […] The initial (in.) cellular ATP concentration ([ATP]) was measured using the ENLITEN (Promega) luciferase based reaction kit. […] The experimental (exp.) cellular ATP was extracted and the concentration was measured as stated above. […]
compound,measurement,value
CC1(C)S[C@@H]2[C@H](NC(=O)Cc3ccccc3)C(=O)N2[C@H]1C(=O)O [Penicillin G],cellular [ATP] content (FIG. 3),significant lesser [ATP] content
